From US8445441B2, “Inhibitors of BCL-2” (Case Western Reserve University, priority 2007, dated 2013)

Experiments:
[1] = tested on: WEHI7.2 cells; assay: anti-CD3-induced Ca2+ elevation by digital imaging; type: cell-based; conditions: Bcl-2(+) WEHI7.2 cells; 60 μM peptide with Chariot reagent
Protocol: (§1) FIGS. 6A-D illustrates peptide 2 (SEQ ID NO:3) Reverses Bcl-2's Inhibition of Anti-CD3-Induced Ca^2+Elevation. (A) Representative Ca^2+ traces (each the mean of ˜65 cells) recording anti-CD3 (arrow, time of addition)-induced Ca^2+ elevation in Bcl-2(+) WEHI7.2 cells. Peptide (60 μM) uptake was facilitated by Chariot reagent. (B) Peak anti-CD3 induced Ca^2+ elevation in Bcl-2(−) and Bcl-2(+) WEHI7.2 cells treated with peptides as in (A) [mean±SEM, five experiments for Bcl-2(−) and seven experiments for Bcl-2(+) cells, with mean 68 cells per sample per experiment]. (C) Representative Ca^2+ traces in Jurkat cells (mean 85 cells each). Treatment conditions are the same as in (A), except that a control involving addition of peptide 2 without Chariot reagent has been added. (D) Peak anti-CD3-induced Ca^2+ elevation in Jurkat cells treated with peptides as in (C) (mean±SEM, seven experiments, mean 81 cells per sample per experiment).
(§2) Next we investigated whether peptide 2 also reverses Bcl-2's inhibitory effect on Ca^2+ release through the IP3R in Bcl-2(+) and (−) WEHI7.2 clones, newly derived WEHI7.2 mixed populations exogenously expressing Bcl-2, and Jurkat cells. Optimal conditions for peptide delivery and anti-CD3 concentration were determined in preliminary experiments. Peptide delivery in the lipid bilayer is 100%, whereas the penetration of peptide 2 into cells is much less, accounting for the lesser effect in cells. Therefore, a higher concentration of peptide (60 μM) was delivered into cells using the Chariot delivery reagent. Cytoplasmic Ca^2+ concentration was continuously measured at a single-cell level by digital imaging during anti-CD3 treatment. Representative Ca^2+ traces from Bcl-2(+) WEHI7.2 cells are shown in FIG. 6A, and the average Ca^2+ elevation induced by anti-CD3 in seven experiments is summarized in FIG. 6B. Observed variations in lag phase are at least partially attributable to the fact that lymphocytes are only loosely adherent to coverslips and thus rapid buffer exchange is not possible during antibody additions. Peptide 2 enhanced anti-CD3-induced Ca^2+ elevation in Bcl-2(+) WEHI7.2 cells by 40%. […] Peptide 2 had no effect on Ca^2+ elevation when added to the cells in the absence of the Chariot reagent. […] The low Bcl-2 level in Jurkat cells and the barely detectable endogenous Bcl-2 in Bcl-2(−) WEHI7.2 cells are consistent with the higher amplitude and longer duration of the Ca^2+ response in these cells in contrast to Bcl-2(+) WEHI7.2 cells (compare FIGS. 6A and 6B to FIGS. 6C and 6D). Thus, peptide 2 modulated anti-CD3-induced Ca^2+ elevation in both Bcl-2(+) WEHI7.2 cells and Jurkat cells, consistent with the ability of peptide 2 to disrupt Bcl-2-IP3R interaction.

[2] = tested on: Jurkat cells; assay: anti-CD3-induced Ca2+ elevation by digital imaging; type: cell-based; conditions: Jurkat cells; 60 μM peptide with Chariot reagent
Protocol: as §1, §2

[3] = target: T1, Bcl-2-IP3R interaction (Homo sapiens, UniProt P10415); assay: GST pull-down of Bcl-2 from Bcl-2(+) WEHI7.2 extracts with GST-IP3R domain 3; type: binding, mouse; set-up: expressed in transfected cells; host or cells: Bcl-2(+) WEHI7.2 cells (source of Bcl-2); conditions: 1 mM peptide
Source text: To identify where Bcl-2 interacts on the IP3R, we used a series of GST-IP3R fusion constructs corresponding to five fragments covering the first N-terminal 2216 amino acids and 1 fragment corresponding to the last 160 amino acids of mouse IP3R type 1 (FIG. 3). These fragments are located in the cytoplasm and coincide with “natural” domains generated by limited proteolysis. The transmembrane domain was not included. After purification, fragments migrated as single prominent bands corresponding to their expected molecular weights, although some minor degradation products were detected.
The first set of GST pull-down experiments utilized extracts of Bcl-2(+) WEHI7.2 cells and Jurkat cells as two independent sources of Bcl-2. Cell extracts were incubated with GST-IP3R fragments prebound to glutathione sepharose resin, with equal loading of the GST-IP3R fragments. […] These experiments were repeated a total of five times with the same result. It is important to note that, following incubation of cell extracts with GST-IP3R fragments on the glutathione sepharose resin, the resin was washed extensively.
Since the IP3R binding region was narrowed down to the 80 amino acid subdomain 3a1 (aa 1347-1426), we designed two 20 amino acid peptides (peptide 1, aa 1365-1384 (SEQ ID NO:2); peptide 2, aa 1389-1408 (SEQ ID NO:3)) based on the degree of homology in this region among different IP3R isoforms. Also, preference was given to regions that have beta-turn and/or α-helical structures, rather than random-coil or nonstructured sequences, expecting that one or both of the peptides could inhibit the Bcl-2-IP3R interaction. Furthermore, the C-terminal region of domain 3a1 was not selected because of its lower accessibility and unpredictable secondary structure (Invitrogen PeptideSelect Design Tool). The scrambled sequence of peptide 2 was also synthesized and used as a control. […] The inhibitory effect of peptide 2 on Bcl-2-IP3R interaction was also detected in coimmunoprecipitation assays employing both Bcl-2(+) WEHI7.2 cells (FIGS. 4A and 4B) and Jurkat cells (FIG. 4C). […]

[4] = target: T1, Bcl-2-IP3R interaction; assay: coimmunoprecipitation of Bcl-2 with IP3R from cell extracts; type: binding; set-up: expressed in transfected cells; host or cells: Bcl-2(+) WEHI7.2 cells; also Jurkat cells (endogenous Bcl-2); conditions: 400 μM peptide; Bcl-2(+) WEHI7.2 and Jurkat cell extracts
Protocol: FIG. 4 illustrates an IP3R Peptide Inhibits Bcl-2-IP3R Interaction but Not Bim-Bcl-2 Interaction. (A and D) IP3R was immunoprecipitated from extracts of Bcl-2(+) WEHI7.2 cells (C) or Jurkat cells in the presence of 400 μM peptides. Peptide 2, but not peptide 1 or control peptide, inhibited the Bcl-2-IP3R coimmunoprecipitation. Summary of Bcl-2 immunoblot signal intensities in three […] experiments identical to (C) (mean±SEM). (B) Bcl-2 was immunoprecipitated from Bcl-2(+) WEHI7.2 cell extracts in the presence of 400 μM peptides, and coimmunoprecipitation of Bim was detected by anti-Bim immunoblotting. […] (E) Summary of Bim immunoblot signal intensities in three experiments identical to (B) (mean±SEM).
Since the IP3R binding region was narrowed down to the 80 amino acid subdomain 3a1 (aa 1347-1426), we designed two 20 amino acid peptides (peptide 1, aa 1365-1384 (SEQ ID NO:2); peptide 2, aa 1389-1408 (SEQ ID NO:3)) based on the degree of homology in this region among different IP3R isoforms. […] The inhibitory effect of peptide 2 on Bcl-2-IP3R interaction was also detected in coimmunoprecipitation assays employing both Bcl-2(+) WEHI7.2 cells (FIGS. 4A and 4B) and Jurkat cells (FIG. 4C). […]

[5] = tested on: Jurkat cells; assay: anti-CD3-induced apoptosis (apoptotic nuclei); type: cell-based; conditions: 60 μM peptide with Chariot, 5 μg/ml anti-CD3, 24 hr, anti-CD3 alone 20%-30%
Protocol: FIG. 7 illustrates peptide 2 Enhances Anti-CD3-Induced Apoptosis in Bcl-2-Positive Cells (A) Typical apoptotic nuclear morphology (arrow, Hoechst 33342 stain) 24 hr after 5 μg/ml anti-CD3 treatment of Jurkat cells. Scale bars, 10 μm. (B) Bcl-2(−) and Bcl-2(+) WEHI7.2 cells were pre-incubated±60 μM peptides plus Chariot reagent and then incubated with 20 μg/ml anti-CD3 for 24 hr. Symbols represent the percentage of cells (mean±SEM) with apoptotic nuclei in three experiments for Bcl-2(−) and five experiments for Bcl-2(+) cells (200 cells counted per coverslip). (C) Jurkat cells were pre-incubated±60 μM peptides±Chariot reagent and then incubated with 5 μg/ml anti-CD3 for 24 hr. Symbols represent the percentage of cells (mean±SEM) with apoptotic nuclei in five experiments (240 cells counted per coverslip).
Peptide 2 also attenuated Bcl-2's inhibition of anti-CD3-induced apoptosis in Jurkat cells. In preliminary studies (data not shown), we tested several anti-CD3 concentrations. Higher concentrations of anti-CD3 induced high levels of apoptosis that might obscure the effect of the peptide. We therefore used 5 μg/ml anti-CD3, sufficient to induce 20%-30% apoptosis.

[6] = target: Bcl-XL (Homo sapiens, UniProt Q07817); conditions: read-out: inhibitory concentration of 50% (IC50), displacing BH3 peptides; cited from earlier work
[7] = target: T2, Bcl-B (Homo sapiens, UniProt Q9HD36); conditions: read-out: inhibitory concentration of 50% (IC50), displacing BH3 peptides; cited from earlier work
T2 sequence (Q9HD36 1-204): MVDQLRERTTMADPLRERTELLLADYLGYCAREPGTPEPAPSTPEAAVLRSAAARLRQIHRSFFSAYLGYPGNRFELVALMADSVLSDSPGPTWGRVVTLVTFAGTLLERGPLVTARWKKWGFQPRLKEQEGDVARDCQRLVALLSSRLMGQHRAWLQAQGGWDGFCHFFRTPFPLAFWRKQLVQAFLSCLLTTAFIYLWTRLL

[8] = target: T3, Bfl-1 (Homo sapiens, UniProt Q16548); conditions: read-out: inhibitory concentration of 50% (IC50), displacing BH3 peptides; cited from earlier work
T3 sequence (Q16548 1-175): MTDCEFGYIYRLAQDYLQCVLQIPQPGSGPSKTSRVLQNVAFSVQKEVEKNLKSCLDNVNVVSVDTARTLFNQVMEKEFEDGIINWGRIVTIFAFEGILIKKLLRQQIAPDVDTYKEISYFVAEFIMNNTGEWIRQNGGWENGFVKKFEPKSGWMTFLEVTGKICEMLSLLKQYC

T1 sequence (P10415 whole entry, the tested form may be a part): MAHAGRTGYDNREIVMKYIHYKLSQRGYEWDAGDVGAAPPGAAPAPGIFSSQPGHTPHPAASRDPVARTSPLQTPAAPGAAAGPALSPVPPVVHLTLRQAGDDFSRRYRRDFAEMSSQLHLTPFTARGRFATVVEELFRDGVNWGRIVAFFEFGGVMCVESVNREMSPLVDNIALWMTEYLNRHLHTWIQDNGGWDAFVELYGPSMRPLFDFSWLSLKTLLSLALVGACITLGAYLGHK
Bcl-XL, sequence (Q07817 whole entry, species assumed): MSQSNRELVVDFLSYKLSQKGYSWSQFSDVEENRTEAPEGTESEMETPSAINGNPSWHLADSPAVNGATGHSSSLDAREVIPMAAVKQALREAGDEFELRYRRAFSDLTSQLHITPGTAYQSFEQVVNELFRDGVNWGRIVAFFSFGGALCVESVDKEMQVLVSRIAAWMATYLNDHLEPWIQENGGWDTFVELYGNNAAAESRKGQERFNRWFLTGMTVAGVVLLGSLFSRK

Molecule | enhancement of anti-CD3-induced Ca2+ elevation [1] | enhancement of anti-CD3-induced Ca2+ elevation [2] | amount of Bcl-2 bound to GST-IP3R domain 3 [3] | inhibition of Bcl-2-IP3R coimmunoprecipitation [4] | anti-CD3-induced apoptosis (percentage of apoptotic cells) [5] | IC50 [6] [nM] | IC50 [7] [nM] | IC50 [8] [nM]
MDENSPLMYHIHLVELLAVC (listed as Homo sapiens) [peptide 1, 20 amino acid peptide, aa 1365-1384 of IP3R subdomain 3a1] | did not enhance | did not | partially inhibited | did not inhibit | did not have an effect |  |  | 
Cc1cc2c(C(C)C)c(O)c(O)c(C=O)c2c(O)c1-c1c(C)cc2c(C(C)C)c(O)c(O)c(C=O)c2c1O [Gossypol, 1,6,7,1′,6′,7′-Hexahydroxy-5,5′-diisopropyl-3,3′-dimethyl-[2,2′]binaphthalenyl-8,8′-dicarbaldehyde] |  |  |  |  |  | ~500 | ~500 | ~500
